Experimental findings from US5296494A, “Pyrrolidine compounds having thromboxane A2 receptor antagonistic activity and thromboxane A2 synthase inhibiting activity” (Adir et Compagnie, priority 1991, dated 1994) are described below.

Assay [1] concerns the target T1, guinea pig trachea (Cavia porcellus, UniProt A0A286Y4I8).
T1 construct: the trachea is rapidly removed and then cut into two-cartilage rings; from tissue; host or cells: guinea pig trachea, two-cartilage rings (isolated organ)
T1 sequence (A0A286Y4I8 1-347): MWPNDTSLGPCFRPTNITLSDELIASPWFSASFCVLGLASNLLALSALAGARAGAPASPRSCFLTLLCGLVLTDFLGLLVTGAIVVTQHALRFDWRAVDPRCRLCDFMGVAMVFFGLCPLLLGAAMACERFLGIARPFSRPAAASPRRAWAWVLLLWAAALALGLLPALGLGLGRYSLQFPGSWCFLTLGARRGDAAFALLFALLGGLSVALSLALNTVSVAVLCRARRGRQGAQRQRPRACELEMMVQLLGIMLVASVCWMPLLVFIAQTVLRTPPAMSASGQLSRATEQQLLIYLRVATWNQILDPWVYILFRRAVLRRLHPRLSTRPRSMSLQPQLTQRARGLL
In words: Determination of the pA2 values on guinea pig trachea (U46619-induced contraction). The format is cell-based. As to conditions: isolated guinea pig trachea rings, 37° C., agonist U46619, antagonist contact 20 minutes. How it is done:
Determination of the pA2 values on guinea pig trachea
Male albino guinea pigs weighing 400-500 grams were sacrificed by a blow to the back of the neck and by cervical elongation. The throat is opened and the trachea is rapidly removed and then cut into two-cartilage rings. These rings are mounted between two hooks in cells thermostated at 37° C. containing physiological fluid (composition in mM:NaCl 118; NaHCO3 25; glucose 10; KCl 4.7; CaCl2 1.25; MgSO4 1.19; KH2 PO4 1.14).
A 95% O2 /5% CO2 mixture is bubbled through the physiological solution. The lower hook constitutes the fixed point while the upper hook is connected to an isometric strength gage. The tissues are placed under a baseline tension of 3.5 grams. The test pharmacological substances are prepared immediately before use. The drugs are solubilized in water or in dimethyl sulfoxide.
After mounting, the preparations are left standing for 90 minutes, rinses being performed every 30 minutes. After readjustment of the baseline tension, a contraction produced by a single dose of agonist (U46619; 10^-5 M) is produced in order to make the following contractions consist. After washing and return to the baseline, a first effect/concentration curve is established by adding cumulative doses of U46619 (10^-9 M to 10^-5 M, with semi-log spacing between the doses). This first experiment enables the "control" 50% effective concentration (EC50) to be calculated.
This EC50 is routinely calculated in the following manner: the tension values are first converted to percentages relative to the maximum effect, these percentages then being plotted on a graph with the percentages as ordinates and the log (concentration) values as abscissae. A linear regression is then carried out on the points lying between 10% and 90% (which corresponds to the linear portion of the sigmoid curve). The concentration corresponding to half the maximum effect (50%) may be readily calculated using the parameters of the linear plot.
After washing and return to the baseline, the organ is brought into contact with the antagonist ([…]) for 20 minutes. A second effect/concentration curve is then established in the presence of the antagonist, and the "treated" EC50 can then be calculated. All the elements enabling the pA2 (competitive antagonism) or pD2 (non-competitive antagonism) to be calculated are thereby obtained.
The pA2 (which represents the negative logarithm of the antagonist concentration in the presence of which twice as much agonist is required in order to obtain the same effect) is determined by plotting on a graph the values of log ((L/1)-1) with respect to log (antagonist concentration), where L=effect in presence of antagonist and 1=control effect.

Assay [2] addresses T2, thromboxane synthase (Oryctolagus cuniculus, UniProt G1TAZ9).
T2 construct: from tissue; host or cells: rabbit whole blood (clotting; by own knowledge the enzyme is chiefly that of platelets)
T2 sequence (G1TAZ9 1-530): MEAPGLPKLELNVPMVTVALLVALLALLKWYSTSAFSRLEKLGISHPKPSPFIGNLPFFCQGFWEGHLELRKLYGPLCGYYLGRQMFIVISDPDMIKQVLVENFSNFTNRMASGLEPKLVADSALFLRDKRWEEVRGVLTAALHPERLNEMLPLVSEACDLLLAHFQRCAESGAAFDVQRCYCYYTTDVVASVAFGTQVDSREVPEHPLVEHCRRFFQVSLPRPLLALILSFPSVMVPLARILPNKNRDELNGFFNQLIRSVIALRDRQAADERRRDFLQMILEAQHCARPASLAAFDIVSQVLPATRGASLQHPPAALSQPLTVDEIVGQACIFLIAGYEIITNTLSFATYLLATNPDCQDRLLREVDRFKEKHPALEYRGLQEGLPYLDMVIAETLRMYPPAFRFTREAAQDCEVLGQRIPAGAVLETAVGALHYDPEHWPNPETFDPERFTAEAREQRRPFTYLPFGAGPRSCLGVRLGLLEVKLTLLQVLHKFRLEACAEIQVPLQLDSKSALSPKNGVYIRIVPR
Kind of assay: Anti-thromboxane synthase activity (TXB2 levels in serum of rabbit blood, radio immunoassay). The class given is cell-based. The conditions noted are these: 37° C., one hour, serum TXB2 by radio immunoassay, read-out: IC50, inhibition of TXB2 level. On the procedure: Anti-thromboxane synthase activity
Albino New Zealand rabbits weighing approximately 2 kg are used. These rabbits are anesthetized with pentobarbital (30 mg/kg i.v.). Blood is collected via carotid catheter in dry glass tubes, in the proportion of 1 ml per tube, in the presence or absence of different concentrations of inhibitor. The inhibitors are diluted in physiological fluid in order to avoid possible hemolysis.
The tubes are placed in a water bath at 37° C. for one hour. After coagulation, the tubes are cooled to 4° C. and centrifuged at 2000 g for 20 minutes in order to separate the serum from the clot. The serum may be frozen at -20° C. for 2 weeks for a subsequent assay.
The levels of TXB2, the stable metabolite of TXA2, in the serum are determined by radio immunoassay.
The levels obtained in the presence of the different doses of inhibitor are converted to a percentage inhibition relative to the baseline level of TXB2, in order to calculate the IC50 of the inhibitor. The latter is obtained by non-linear regression using the following equation (Michaelis L, Menten ML, Die Kinetik der Invertinwirkung, Biochem. Zeitschrifft, 1913, 49, 333-369):
I=(Imax * C^n) / (IC^n +C^n)
C=inhibitor concentration

For assay [3], the system named is thromboxane receptor (increase in tracheal pressure caused by U46619). Kind of assay: IC50 on tracheal pressure in guinea pigs (U46619-induced bronchoconstriction). The class given is in vivo, guinea pig. The conditions noted are these: anesthetized guinea pigs, antagonist injected 5 minutes before U46619 (2 μg/kg i.v.); for ED50: Cavia porcellus, iv, 5 min, read-out: IC50, dose of antagonist that inhibits by 50% the increase in tracheal pressure caused by U46619. An excerpt: IC50 on tracheal pressure in guinea pigs
Male albino guinea pigs (350-400 g) subjected to an 18-hour water diet are anesthetized with ethyl carbamate (1.25 g/kg i.p.). A catheter is introduced into the carotid artery in order to measure the arterial blood pressure by means of a pressure cell. A second catheter is introduced into the jugular vein and is used to inject the pharmacological substances. The trachea is cannulated and the guinea pig is placed in assisted respiration by means of a respirator. The animal's temperature is maintained at 37° C. using a thermostated blanket. A needle pushed into the tracheal cannula is connected to a pressure cell and enables the tracheal pressure to be recorded.
The guinea pigs are pretreated with d-tubocurarine (1 mg/kg i.v.) and with indomethacin (10 mg/kg i.v.). Injected at a dose of 2 μg/kg i.v., U46619 produces a bronchoconstriction which leads to an increase in tracheal pressure and induces an increase in arterial blood pressure. The responses to U46619 are reversible and reproducible if the injections are carried out every 10 minutes.
The thromboxane receptor antagonists are injected 5 minutes before the injections of U46619. The dose of antagonist that inhibits by 50% the increase in tracheal pressure caused by U46619 is determined (IC50).

In assay [4] the test system is platelet aggregation response induced by U46619 (TXA2 receptor agonist). In words: Platelet aggregation: inhibition of U46619-induced aggregation of rabbit platelet-rich plasma. The conditions noted are these: Oryctolagus cuniculus, rabbit PRP, 37° C., antagonist 3 min before U46619 (1.2 μM), read-out: IC50, concentration inducing 50% inhibition of the aggregation response induced by U46619. The format is cell-based. How it is done: Rabbits (2-3 kg) are anesthetized with pentobarbital sodium (30 mg/kg i.v.). After cannulation of the left carotid artery, blood is withdrawn onto sodium citrate (0.109M) (1 vol. of citrate per 9 vol. of blood).
Platelet-rich plasma (PRP) is obtained by centrifugation (20° C.) at 250 g for 20 minutes, and platelet- poor plasma (PPP) by centrifugation at 1000 g (10 min). The number of platelets (PL) in the PRP is adjusted to 300-350,000 PL/mm^3 by dilution with autologous PPP. The PRP is stored at the temperature of the room until the time of the test, and is used within 4 hours following withdrawal.
Platelet aggregation is carried out at 37° C. in siliconed glass tubes using an aggregometer. The PRP and PL are stirred at 1000 rpm (revolutions per minute). In order to study the activity of thromboxane antagonists, the PRP is incubated for 1 min at 37° C., and the antagonist is then added for a period of 3 min before addition of the agonist U46619 (1.2 μM). The final volume in the cell is then 250 μl. The intensity of platelet aggregation is established by taking the maximum amplitude of the aggregation plots and is expressed as a percentage light transmission (% T). The activity of the antagonists is expressed as IC50, that is to say the concentration of the substance which induces a 50% inhibition of the aggregation response induced by U46619.

Each structure is given as a SMILES string. Where a name gives a salt, the structure may show the parent alone.

As usually defined, the Kb is the equilibrium dissociation constant of an antagonist, usually derived from a functional assay. Read a low Kb as a more potent antagonist.

The molecule `COc1cccc([C@@H]2[C@H](C/C=C\CCC(=O)O)CCN2S(=O)(=O)c2ccc(F)cc2)c1` (relative stereo) [Example 1, (4Z)-6-[(2α,3α)-1-(4-Fluorophenylsulfonyl)-2-(3-methoxyphenyl)-3-pyrrolidinyl]-4-hexenoic acid sodium salt] gave a Kb in assay [1] of 0.0631 µM.

Turning to `O=C(O)CC/C=C\C[C@@H]1CCN(S(=O)(=O)c2ccc(F)cc2)[C@@H]1c1cccnc1` (relative stereo) [Example 2, (4Z)-6-[(2α,3α)-1-(4-Fluorophenylsulfonyl)-2-(3-pyridyl)-3-pyrrolidinyl]-4-hexenoic acid sodium salt], the IC50 in assay [2] was 200 µM.

In the case of `O=C(O)CC/C=C\C[C@@H]1CCN(S(=O)(=O)c2ccc(F)cc2)[C@@H]1c1cccc(O)c1` (relative stereo) [Example 14, (4Z)-6-[(2α,3α)-1-(4-Fluorophenylsulfonyl)-2-(3-hydroxyphenyl)-3-pyrrolidinyl]-4-hexenoic acid sodium salt], in assay [1], the Kb was 0.01 µM. The ED50 in assay [3] was 0.07 mg/kg. In assay [4], the IC50 turned out to be 20 µM.

In assay [1], `O=C(O)CCC/C=C\C[C@@H]1CCN(S(=O)(=O)c2ccc(F)cc2)[C@@H]1c1cccc(O)c1` (relative stereo) [Example 15, (5Z)-7-[(2α,3α)-1-(4-Fluorophenylsulfonyl)-2-(3-hydroxyphenyl)-3-pyrrolidinyl]-5-heptenoic acid sodium salt] had a Kb of 0.0398 µM. For the same molecule, in assay [3], the ED50 stood at 0.16 mg/kg. Also, the IC50 in assay [4] worked out at 20 µM.

As to `O=C(O)CCCCC[C@@H]1CCN(S(=O)(=O)c2ccc(F)cc2)[C@@H]1c1cccnc1` (relative stereo) [Example 20, 6-[(2α,3α)-1-(4-Fluorophenylsulfonyl)-2-(3-pyridyl)-3-pyrrolidinyl) hexanoic acid sodium salt], the IC50 in assay [2] stood at 60 µM.

In assay [1], `O=C(O)CC/C=C\C[C@@H]1CCN(Cc2cccnc2)[C@@H]1c1ccccc1` (relative stereo) [Example 21, (4Z)-6-{(2α,3α)-1-[(3-Pyridyl)methyl]-2-phenyl-3-pyrrolidinyl}-4-hexenoic acid sodium salt] had a Kb of 0.00182 µM. The ED50 in assay [3] was 0.17 mg/kg. Moreover, the IC50 in assay [2] was 8.5 µM.

Molecule `O=C(O)CCCCC[C@@H]1CCN(Cc2cccnc2)[C@@H]1c1ccccc1` (relative stereo) [Example 22, 6-{(2α,3α)-1-[(3-Pyridyl)methyl]-2-phenyl-3-pyrrolidinyl}hexanoic acid sodium salt] gave an antagonist equilibrium constant (Kb) in assay [1] of 7.08 µM.

For `O=C(O)CC/C=C\C[C@@H]1CCN(Cc2cccnc2)[C@@H]1c1cccc(O)c1` (relative stereo) [Example 26, (4Z)-6-{(2α,3α)-1-[(3-Pyridyl)methyl]-2-(3-hydroxyphenyl) -3-pyrrolidinyl}-4-hexenoic acid sodium salt], in assay [1], the Kb is 0.0309 µM. In addition, in assay [3], the ED50 came out at 0.03 mg/kg.

Regarding `O=C([O-])CC/C=C\C[C@@H]1CCN(S(=O)(=O)c2ccc(F)cc2)[C@H]1c1ccccc1.[Na+]` [Example 4, (4Z)-6-[(2α,3α)-1-(4-Fluorophenylsulfonyl)-2-phenyl-3-pyrrolidinyl]-4-hexenoic acid sodium salt], in assay [3], the “IC50, dose of antagonist that inhibits by 50% the increase in tracheal pressure caused by U46619” value was 0.7 mg/kg.
